Columns and labels:
Type in all cases: biochemical
Itk = target: T1, Itk (Homo sapiens, UniProt Q08881); test: ITK Inhibition Assay (Radiometric), radioactive-phosphate incorporation; details: enzyme inhibition data (Ki), Table 11; radiometric or UV assay not stated
T1 sequence (Q08881 1-620): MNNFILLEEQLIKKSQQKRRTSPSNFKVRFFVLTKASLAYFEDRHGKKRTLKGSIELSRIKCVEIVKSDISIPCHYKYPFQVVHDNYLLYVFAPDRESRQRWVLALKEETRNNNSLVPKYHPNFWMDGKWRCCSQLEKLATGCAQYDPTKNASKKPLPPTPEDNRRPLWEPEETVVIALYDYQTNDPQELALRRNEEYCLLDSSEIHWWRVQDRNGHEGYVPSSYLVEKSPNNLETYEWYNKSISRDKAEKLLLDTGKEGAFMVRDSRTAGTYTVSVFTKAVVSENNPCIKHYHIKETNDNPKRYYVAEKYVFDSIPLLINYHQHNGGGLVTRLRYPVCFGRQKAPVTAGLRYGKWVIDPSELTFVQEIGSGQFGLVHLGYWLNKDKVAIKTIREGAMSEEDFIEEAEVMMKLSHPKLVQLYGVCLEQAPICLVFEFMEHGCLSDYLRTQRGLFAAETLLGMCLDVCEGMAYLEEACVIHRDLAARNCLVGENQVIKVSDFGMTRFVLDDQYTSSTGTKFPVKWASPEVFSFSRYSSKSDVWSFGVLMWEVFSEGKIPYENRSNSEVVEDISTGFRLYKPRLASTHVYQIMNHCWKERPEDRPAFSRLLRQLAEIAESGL
Description: Assays are carried out in a mixture of 20 mM MOPS (pH 7.0), 10 mM MgCl2, 0.1% BSA and 1 mM DTT. Final substrate concentrations in the assay are 7.5 μM [γ-33P]ATP (400 mCi 33P ATP/mmol ATP, Amersham Pharmacia Biotech/Sigma Chemicals) and 3 μM peptide (SAM68 protein D332-443). Assays are carried out at 25° C. in the presence of 50 nM Itk. An assay stock buffer solution is prepared containing all of the reagents listed above, with the exception of ATP and the test compound of interest. 50 μL of the stock solution is placed in a 96 well plate followed by addition of 2 μL of DMSO stock containing serial dilutions of the test compound (typically starting from a final concentration of 50 μM with 2-fold serial dilutions) in duplicate (final DMSO concentration 2%). The plate is pre-incubated for 10 minutes at 25° C. and the reaction initiated by addition of 50 μL [γ-33P]ATP (final concentration 7.5 μM).
The reaction is stopped after 10 minutes by the addition of […] 0.2M phosphoric acid+0.01% TWEEN 20. A multiscreen phosphocellulose filter 96-well plate (Millipore, Cat no. MAPHN0B50) is pretreated with 100 μL 0.2M phosphoric acid +0.01% TWEEN 20 prior to the addition of […] of the stopped assay mixture. The plate is washed with 4×200 μL 0.2M phosphoric acid+0.01% TWEEN 20. After drying, 30 μL Optiphase ‘SuperMix’ liquid scintillation cocktail (Perkin Elmer) is added to the well prior to scintillation counting (1450 Microbeta Liquid Scintillation Counter, Wallac).
Ki(app) data are calculated from non-linear regression analysis of the initial rate data using the Prism software package (GraphPad Prism version 3.0cx for Macintosh, GraphPad Software, San Diego Calif., USA).

c-Met = c-Met (Homo sapiens, UniProt P08581); test: c-Met Inhibition Assay, coupled enzyme system; details: enzyme inhibition data (Ki), Table 11
Description: Compounds are screened for their ability to inhibit c-Met kinase activity using a standard coupled enzyme system (Fox et al., Protein Sci. 1998, 7, 2249). Reactions are carried out in a solution containing 100 mM HEPES (pH 7.5), 10 mM MgCl2, 25 mM NaCl, 300 μM NADH, 1 mM DTT, and 1.5% DMSO. Final substrate concentrations in the assay are 200 μM ATP (Sigma Chemicals, St Louis, Mo.) and 10 μM polyGluTyr (Sigma Chemical Company, St. Louis). Reactions are carried out at 30° C. and 80 nM c-Met. Final concentrations of the components of the coupled enzyme system are 2.5 mM phosphoenolpyruvate, 300 μM NADH, 30 μg/ml pyruvate kinase and 10 μg/ml lactate dehydrogenase.
An assay stock buffer solution is prepared containing all of the reagents listed above with the exception of ATP and a test compound of the present invention. The assay stock buffer solution (175 μl) is incubated in a 96 well plate with 5 μl of the test compound of the present invention at final concentrations spanning 0.006 μM to 12.5 μM at 30° C. for 10 minutes. Typically, a 12-point titration is conducted by preparing serial dilutions (from 10 mM compound stocks) with DMSO of the test compounds of the present invention in daughter plates. The reaction is initiated by the addition of 20 μl of ATP (final concentration 200 μM). Rates of reaction are obtained using a Molecular Devices Spectramax plate reader (Sunnyvale, Calif.) over 10 minutes at 30° C. The Ki values are determined from the rate data as a function of inhibitor concentration.

JAK3 = target: T2, JAK3 (Homo sapiens, UniProt P52333); test: JAK3 Inhibition Assay, 33P incorporation; details: enzyme inhibition data (Ki), Table 11
T2 sequence (P52333 1-1124): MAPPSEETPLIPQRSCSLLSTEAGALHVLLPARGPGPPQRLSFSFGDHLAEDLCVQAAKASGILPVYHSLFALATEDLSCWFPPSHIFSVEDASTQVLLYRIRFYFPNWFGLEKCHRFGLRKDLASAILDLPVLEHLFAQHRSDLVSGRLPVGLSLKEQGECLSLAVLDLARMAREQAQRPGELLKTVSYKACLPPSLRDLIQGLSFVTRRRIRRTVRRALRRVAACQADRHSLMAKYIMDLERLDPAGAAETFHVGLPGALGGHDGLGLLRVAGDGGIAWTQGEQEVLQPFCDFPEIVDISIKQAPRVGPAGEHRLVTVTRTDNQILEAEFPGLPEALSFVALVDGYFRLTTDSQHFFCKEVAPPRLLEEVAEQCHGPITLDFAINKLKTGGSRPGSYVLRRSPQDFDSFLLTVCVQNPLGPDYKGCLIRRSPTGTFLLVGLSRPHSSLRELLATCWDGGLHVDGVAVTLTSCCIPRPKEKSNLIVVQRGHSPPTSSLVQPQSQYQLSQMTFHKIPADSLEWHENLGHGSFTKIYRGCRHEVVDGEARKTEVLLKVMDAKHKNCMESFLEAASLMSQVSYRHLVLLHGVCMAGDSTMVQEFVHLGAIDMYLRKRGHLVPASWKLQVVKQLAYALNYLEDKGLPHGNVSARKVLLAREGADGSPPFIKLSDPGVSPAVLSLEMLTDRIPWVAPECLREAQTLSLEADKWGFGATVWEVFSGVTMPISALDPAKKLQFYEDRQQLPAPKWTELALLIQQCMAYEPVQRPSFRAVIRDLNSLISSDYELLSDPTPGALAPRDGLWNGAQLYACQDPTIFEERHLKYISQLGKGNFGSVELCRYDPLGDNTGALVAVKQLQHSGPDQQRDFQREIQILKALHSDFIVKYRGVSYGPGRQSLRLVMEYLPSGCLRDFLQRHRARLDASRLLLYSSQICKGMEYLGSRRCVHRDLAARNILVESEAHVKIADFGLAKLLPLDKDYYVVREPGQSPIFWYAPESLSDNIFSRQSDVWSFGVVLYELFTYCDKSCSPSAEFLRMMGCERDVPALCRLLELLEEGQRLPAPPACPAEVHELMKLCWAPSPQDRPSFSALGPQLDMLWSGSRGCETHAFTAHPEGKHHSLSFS
Description: Reactions are carried out in a kinase buffer containing 100 mM HEPES (pH 7.4), 1 mM DTT, 10 mM MgCl2, 25 mM NaCl, and 0.01% BSA. Substrate concentrations in the assay are 5 μM ATP (200 uCi/μmole ATP) and 1 μM poly(Glu)4Tyr. Reactions are carried out at 25° C. and 1 nM JAK3. To each well of a 96 well polycarbonate plate is added 1.5 μl of a candidate JAK3 inhibitor along with 50 μl of kinase buffer containing 2 μM poly(Glu)4Tyr and 10 μM ATP. This is then mixed and 50 μl of kinase buffer containing 2 nM JAK3 enzyme is added to start the reaction. After 20 minutes at room temperature (25 C), the reaction is stopped with 50 μl of 20% trichloroacetic acid (TCA) that also contained 0.4 mM ATP. The entire contents of each well are then transferred to a 96 well glass fiber filter plate using a TomTek Cell Harvester. After washing, 60 μl of scintillation fluid is added and ^33P incorporation detected on a Perkin Elmer TopCount.

Chain of c-Met (P08581 25-1390): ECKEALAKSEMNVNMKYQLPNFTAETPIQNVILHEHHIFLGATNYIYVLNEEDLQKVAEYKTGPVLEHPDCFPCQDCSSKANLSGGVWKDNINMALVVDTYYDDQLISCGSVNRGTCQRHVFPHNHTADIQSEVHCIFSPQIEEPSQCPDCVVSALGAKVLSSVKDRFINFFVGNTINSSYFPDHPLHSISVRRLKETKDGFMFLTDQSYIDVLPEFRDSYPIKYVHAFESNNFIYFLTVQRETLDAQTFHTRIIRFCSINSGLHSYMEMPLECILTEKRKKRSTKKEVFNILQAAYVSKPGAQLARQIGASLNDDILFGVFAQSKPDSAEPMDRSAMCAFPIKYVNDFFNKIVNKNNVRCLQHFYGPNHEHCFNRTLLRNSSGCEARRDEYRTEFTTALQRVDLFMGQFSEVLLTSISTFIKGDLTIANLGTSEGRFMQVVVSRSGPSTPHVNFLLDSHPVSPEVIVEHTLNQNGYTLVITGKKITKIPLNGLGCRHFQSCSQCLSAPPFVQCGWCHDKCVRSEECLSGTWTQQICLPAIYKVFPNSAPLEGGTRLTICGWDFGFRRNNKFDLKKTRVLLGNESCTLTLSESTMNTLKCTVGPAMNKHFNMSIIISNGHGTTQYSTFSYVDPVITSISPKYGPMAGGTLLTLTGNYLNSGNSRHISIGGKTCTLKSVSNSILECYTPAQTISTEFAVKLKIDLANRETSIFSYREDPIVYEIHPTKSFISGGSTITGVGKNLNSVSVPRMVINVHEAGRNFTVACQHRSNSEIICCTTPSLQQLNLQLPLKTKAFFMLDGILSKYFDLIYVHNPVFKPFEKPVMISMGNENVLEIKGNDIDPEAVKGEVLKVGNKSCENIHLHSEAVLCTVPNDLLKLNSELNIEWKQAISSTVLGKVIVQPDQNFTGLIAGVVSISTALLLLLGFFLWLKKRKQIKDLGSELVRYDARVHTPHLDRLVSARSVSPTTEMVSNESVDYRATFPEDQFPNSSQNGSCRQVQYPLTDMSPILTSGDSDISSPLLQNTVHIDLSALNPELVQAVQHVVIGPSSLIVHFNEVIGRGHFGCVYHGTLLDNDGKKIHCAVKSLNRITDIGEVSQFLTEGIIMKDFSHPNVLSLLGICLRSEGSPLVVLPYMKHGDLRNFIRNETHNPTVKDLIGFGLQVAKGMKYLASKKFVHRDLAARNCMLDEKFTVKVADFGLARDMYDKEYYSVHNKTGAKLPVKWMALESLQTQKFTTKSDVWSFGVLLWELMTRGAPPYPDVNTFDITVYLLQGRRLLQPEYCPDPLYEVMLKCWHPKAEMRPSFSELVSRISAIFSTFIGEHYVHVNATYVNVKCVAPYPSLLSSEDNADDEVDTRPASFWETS

Nc1nn2cc(-c3ccncc3)cnc2c1-c1cccc(NCCC2=CCCCC2)n1 [Compound V-138]
Ki (Itk): 0.5 to 5 µM
Ki (c-Met): 0.5 to 5 µM
Ki (JAK3): > 5 µM

Nc1nn2cc(-c3ccc(C(=O)N4CCC(N5CCCC5)CC4)cn3)cnc2c1-c1ccccn1 [Compound V-84]
Ki (Itk): < 0.5 µM
Ki (c-Met): < 0.5 µM
Ki (JAK3): 0.5 to 5 µM

Cc1cnc2c(-c3cc(N[C@@H]4CCC[C@H]4OCc4ccccc4)ncn3)c(N)nn2c1 [Compound V-336]
Ki (Itk): 0.5 to 5 µM
Ki (c-Met): < 0.5 µM
Ki (JAK3): 0.5 to 5 µM

Nc1nn2cc(C(=O)NCCc3ccccc3)cnc2c1-c1ccccn1 [Compound V-198]
Ki (Itk): 0.5 to 5 µM
Ki (c-Met): 0.5 to 5 µM
Ki (JAK3): > 5 µM

Nc1nn2cc(-c3ccncn3)cnc2c1C(=O)NCc1ccc(F)cc1F [Compound V-32]
Ki (Itk): 0.5 to 5 µM
Ki (c-Met): 0.5 to 5 µM
Ki (JAK3): > 5 µM

Cc1cnc2c(-c3cc(NC4CCCC4)ncn3)c(N)nn2c1 [Compound V-332]
Ki (Itk): < 0.5 µM
Ki (c-Met): < 0.5 µM
Ki (JAK3): 0.5 to 5 µM

CCCCN(CCN)C(=O)c1ccc(-c2cnc3c(-c4ccccn4)c(N)nn3c2)nc1 [Compound V-80]
Ki (Itk): < 0.5 µM
Ki (c-Met): < 0.5 µM
Ki (JAK3): > 5 µM

Nc1nn2cc(-c3ccccc3C(=O)O)cnc2c1-c1ccccn1 [Compound V-11]
Ki (Itk): 0.5 to 5 µM
Ki (c-Met): 0.5 to 5 µM
Ki (JAK3): > 5 µM

Nc1ccc(CNC(=O)c2cnc3c(-c4ccccn4)c(N)nn3c2)cc1 [Compound V-199]
Ki (Itk): 0.5 to 5 µM
Ki (c-Met): 0.5 to 5 µM
Ki (JAK3): > 5 µM

CCOC(=O)c1c(N)nn2cc(-c3ccncn3)cnc12 [Compound V-27]
Ki (Itk): 0.5 to 5 µM
Ki (c-Met): 0.5 to 5 µM
Ki (JAK3): > 5 µM

CN(Cc1cccnc1)c1cc(-c2cnc3c(-c4ccccn4)c(N)nn3c2)ccn1 [Compound V-252]
Ki (Itk): 0.5 to 5 µM
Ki (c-Met): 0.5 to 5 µM
Ki (JAK3): > 5 µM

CC(C)CN(C)C(=O)c1cccc(-c2cnc3c(-c4ccccn4)c(N)nn3c2)n1 [Compound V-125]
Ki (Itk): 0.5 to 5 µM
Ki (c-Met): < 0.5 µM
Ki (JAK3): > 5 µM

Nc1nn2cc(-c3cccnc3N3CCC[C@H]3CO)cnc2c1-c1ccccn1 [Compound V-262]
Ki (Itk): 0.5 to 5 µM
Ki (c-Met): 0.5 to 5 µM
Ki (JAK3): > 5 µM

Cc1cnc2c(-c3cc(NCc4cc(Cl)ccc4Cl)ncn3)c(N)nn2c1 [Compound V-275]
Ki (Itk): 0.5 to 5 µM
Ki (c-Met): 0.5 to 5 µM
Ki (JAK3): > 5 µM

CN1CCCN(C(=O)c2cccc(-c3cnc4c(-c5ccccn5)c(N)nn4c3)n2)CC1 [Compound V-105]
Ki (Itk): 0.5 to 5 µM
Ki (c-Met): < 0.5 µM
Ki (JAK3): > 5 µM

COC(=O)C1CCN(c2ncccc2-c2cnc3c(-c4ccccn4)c(N)nn3c2)CC1 [Compound V-260]
Ki (Itk): 0.5 to 5 µM
Ki (c-Met): 0.5 to 5 µM
Ki (JAK3): > 5 µM

CN(C)CCCc1cnc2c(-c3ccccn3)c(N)nn2c1 [Compound V-316]
Ki (Itk): 0.5 to 5 µM
Ki (c-Met): 0.5 to 5 µM
Ki (JAK3): > 5 µM

CCc1ccccc1-c1cnc2c(-c3ccccn3)c(N)nn2c1 [Compound V-9]
Ki (Itk): 0.5 to 5 µM
Ki (c-Met): 0.5 to 5 µM
Ki (JAK3): > 5 µM

Nc1nn2cc(-c3cccc(C(=O)NCCF)n3)cnc2c1-c1ccccn1 [Compound V-107]
Ki (Itk): 0.5 to 5 µM
Ki (c-Met): < 0.5 µM
Ki (JAK3): 0.5 to 5 µM

Cc1cnc2c(-c3cc(NC4CCNC4)ncn3)c(N)nn2c1 (stereo not drawn) [Compound V-337]
Ki (Itk): < 0.5 µM
Ki (c-Met): < 0.5 µM
Ki (JAK3): < 0.5 µM

Nc1nn2cc(-c3cccnc3N3CCC(CCO)CC3)cnc2c1-c1ccccn1 [Compound V-271]
Ki (Itk): 0.5 to 5 µM
Ki (c-Met): 0.5 to 5 µM
Ki (JAK3): > 5 µM

Nc1nn2cc(CCCNCC3CCCO3)cnc2c1-c1ccccn1 (stereo not drawn) [Compound V-329]
Ki (Itk): 0.5 to 5 µM
Ki (c-Met): < 0.5 µM
Ki (JAK3): > 5 µM

Nc1nn2cc(C(=O)NCc3cccnc3)cnc2c1-c1ccccn1 [Compound V-200]
Ki (Itk): 0.5 to 5 µM
Ki (c-Met): 0.5 to 5 µM
Ki (JAK3): > 5 µM

Nc1nn2cc(-c3ccncn3)cnc2c1C(=O)N(CCO)Cc1ccccc1 [Compound V-37]
Ki (Itk): 0.5 to 5 µM
Ki (c-Met): 0.5 to 5 µM
Ki (JAK3): > 5 µM

N#CCCN(Cc1ccccc1)C(=O)c1c(N)nn2cc(-c3ccncn3)cnc12 [Compound V-38]
Ki (Itk): 0.5 to 5 µM
Ki (c-Met): 0.5 to 5 µM
Ki (JAK3): > 5 µM

CCCN(CCO)C(=O)c1cccc(-c2cnc3c(-c4ccccn4)c(N)nn3c2)n1 [Compound V-111]
Ki (Itk): 0.5 to 5 µM
Ki (c-Met): < 0.5 µM
Ki (JAK3): > 5 µM

Reference: patent US7528138B2, “Pyrazolo[1,5-a]pyrimidines useful as inhibitors of protein kinases” (Vertex Pharmaceuticals Incorporated, priority 2004, dated 2009)
